In brackets after ≈: the same amount, converted by molar mass.
Key:
Assay in all cases: ≥ marks a high value that may be exact or a test limit, other limits are often not marked, values filed in µg/mL are converted to µM
Bacillus cereus = tested on: Bacillus cereus
Escherichia coli = tested on: Escherichia coli
[1] = tested on: Pseudomonas aeruginosa ATCC 9027
[2] = tested on: Staphylococcus aureus ATCC 6538
Staphylococcus aureus = tested on: Staphylococcus aureus
[3] = tested on: Candida albicans ATCC 90028
[4] = tested on: Escherichia coli ATCC 25726
[5] = tested on: Staphylococcus aureus ATCC 25923
Bacillus subtilis = tested on: Bacillus subtilis
Salmonella typhimurium = tested on: Salmonella typhimurium
[6] = tested on: Staphylococcus aureus NCTC 10788

With `CC[C@H](C)[C@H](NC(=O)[C@H](CCCCN)NC(=O)[C@@H](NC(=O)[C@@H](NC(=O)[C@@H](NC(=O)[C@H](CCC(N)=O)NC(=O)[C@H](C)NC(=O)CNC(=O)[C@H](CO)NC(=O)[C@H](CCCCN)NC(=O)[C@H](CCC(N)=O)NC(=O)[C@H](C)NC(=O)[C@H](CCCCN)NC(=O)[C@H](CCCCN)NC(=O)[C@H](C)N)[C@@H](C)O)[C@@H](C)CC)C(C)C)C(=O)N[C@@H](Cc1ccccc1)C(=O)N[C@@H](C)C(=O)N[C@@H](CCCCN)C(=O)NCC(=O)N[C@@H](CCSC)C(=O)O` [AKKAQKSGAQTIVKIFAKGM] the MIC (Bacillus cereus) was at least 122 µM and the MIC (Escherichia coli) was over 122 µM.
In the case of `CC(C)C[C@H](NC(=O)[C@H](CC(C)C)NC(=O)[C@H](CCCCN)NC(=O)[C@H](CCCCN)NC(=O)[C@H](C)NC(=O)[C@H](CC(C)C)NC(=O)[C@H](CCCCN)NC(=O)[C@H](C)NC(=O)[C@H](CC(C)C)NC(=O)[C@H](C)NC(=O)[C@H](CCCCN)NC(=O)[C@H](C)NC(=O)[C@@H](N)Cc1ccccc1)C(N)=O` [FAKALAKLAKKLL], the MIC [1] is reported as 3.53 µM (≈ 5 µg/mL) and the MIC [2] is reported as 3.53 µM (≈ 5 µg/mL).
`CC(C)C[C@H](NC(=O)[C@H](CC(C)C)NC(=O)[C@H](CCCCN)NC(=O)[C@H](CCCCN)NC(=O)[C@H](C)NC(=O)[C@H](C)NC(=O)[C@H](CC(C)C)NC(=O)[C@H](CCCCN)NC(=O)[C@H](CC(C)C)NC(=O)[C@H](CC(C)C)NC(=O)[C@H](CCCCN)NC(=O)[C@H](C)NC(=O)[C@@H](N)Cc1ccccc1)C(N)=O` [FAKLLKLAAKKLL] showed an MIC [1] of 3.43 µM (≈ 5 µg/mL) and an MIC [2] of 137 µM (≈ 200 µg/mL).
Compound `CC(C)C[C@H](NC(=O)[C@@H](N)Cc1ccccc1)C(=O)NCC(=O)N[C@@H](CCCCN)C(=O)N[C@H](C(=O)N[C@H](C(=O)N[C@@H](CCCCN)C(=O)N[C@@H](CCCCN)C(=O)N[C@@H](C)C(=O)N[C@@H](CO)C(=O)N[C@@H](CCCCN)C(=O)N[C@H](C(=O)N[C@@H](Cc1ccccc1)C(=O)N1CCC[C@H]1C(=O)N[C@@H](C)C(=O)N[C@H](C(=O)N[C@@H](Cc1ccccc1)C(=O)NCC(=O)N[C@@H](CCCCN)C(=O)N[C@H](C(=O)O)C(C)C)C(C)C)C(C)C)C(C)C)C(C)C` [FLGKVVKKASKVFPAVFGKV] has an MIC (Bacillus cereus) of at least 59.5 µM, an MIC (Escherichia coli) of 59.5 µM (≈ 128 µg/mL) and an MIC (Staphylococcus aureus) of over 59.5 µM.
Compound `CC(C)C[C@H](NC(=O)[C@@H](N)Cc1ccccc1)C(=O)NCC(=O)N[C@@H](CO)C(=O)N[C@H](C(=O)N[C@@H](Cc1ccccc1)C(=O)N[C@@H](CCCCN)C(=O)N[C@@H](CO)C(=O)N[C@@H](C)C(=O)N[C@@H](CO)C(=O)N[C@@H](CCCCN)C(=O)N[C@H](C(=O)N[C@@H](Cc1ccccc1)C(=O)N1CCC[C@H]1C(=O)N[C@@H](C)C(=O)N[C@H](C(=O)N[C@@H](Cc1ccccc1)C(=O)NCC(=O)N[C@@H](CCCCN)C(=O)N[C@H](C(=O)O)C(C)C)C(C)C)C(C)C)C(C)C` [FLGSVFKSASKVFPAVFGKV] has an MIC (Bacillus cereus) of at least 121 µM, an MIC (Escherichia coli) of over 121 µM and an MIC (Staphylococcus aureus) of over 121 µM.
`CC(C)C[C@H](NC(=O)[C@H](CCCCN)NC(=O)[C@H](Cc1ccccc1)NC(=O)[C@@H](NC(=O)[C@@H](NC(=O)CNC(=O)[C@H](CC(C)C)NC(=O)[C@@H](N)Cc1ccccc1)C(C)C)C(C)C)C(=O)N[C@@H](C)C(=O)N[C@@H](CO)C(=O)N[C@@H](CCCCN)C(=O)N[C@H](C(=O)N[C@@H](Cc1ccccc1)C(=O)N1CCC[C@H]1C(=O)N[C@@H](C)C(=O)N[C@H](C(=O)N[C@@H](Cc1ccccc1)C(=O)N[C@@H](CCCCN)C(=O)N[C@@H](CCCCN)C(=O)N[C@H](C(=O)O)C(C)C)C(C)C)C(C)C` [FLGVVFKLASKVFPAVFKKV] was tested, and the MIC (Bacillus cereus) was 7.19 µM (≈ 16 µg/mL), the MIC (Escherichia coli) was 28.8 µM (≈ 64 µg/mL) and the MIC (Staphylococcus aureus) was 1.8 µM (≈ 4 µg/mL).
`CC[C@H](C)[C@H](NC(=O)[C@H](CCCCN)NC(=O)CNC(=O)[C@H](C)NC(=O)[C@@H](NC(=O)[C@H](CO)NC(=O)CNC(=O)[C@H](C)NC(=O)[C@H](CCCCN)NC(=O)[C@H](CO)NC(=O)[C@H](C)NC(=O)[C@H](CCSC)NC(=O)CN)C(C)C)C(=O)N[C@@H](C)C(=O)N[C@@H](CCCCN)C(=O)N[C@@H](Cc1ccccc1)C(=O)N[C@@H](C)C(=O)N[C@@H](CC(C)C)C(=O)NCC(=O)N[C@@H](C)C(=O)N[C@@H](CC(C)C)C(N)=O` [GMASKAGSVAGKIAKFALGAL] gave an MIC [3] of at least 160 µM, an MIC [4] of at least 80 µM and an MIC [5] of 80 µM (≈ 156 µg/mL).
`CC[C@H](C)[C@H](NC(=O)[C@H](C)NC(=O)[C@@H](NC(=O)[C@H](CCCCN)NC(=O)[C@H](C)NC(=O)[C@H](CC(C)C)NC(=O)[C@H](CCCCN)NC(=O)CNC(=O)[C@H](CC(C)C)NC(=O)[C@@H](NC(=O)[C@H](CO)NC(=O)CNC(=O)[C@H](C)NC(=O)[C@H](CCCCN)NC(=O)[C@H](CO)NC(=O)[C@H](C)NC(=O)[C@H](CCSC)NC(=O)CN)C(C)C)C(C)C)C(=O)NCC(=O)N[C@@H](C)C(=O)N[C@@H](CC(C)C)C(N)=O` [GMASKAGSVLGKLAKVAIGAL] was tested, and the MIC [4] was 25 µM (≈ 48.5 µg/mL) and the MIC [5] was 100 µM (≈ 194 µg/mL).
`CC[C@H](C)[C@H](NC(=O)[C@H](CCCN=C(N)N)NC(=O)[C@@H](NC(=O)[C@@H](NC(=O)[C@@H](NC(=O)CN)C(C)C)C(C)C)C(C)C)C(=O)NCC(=O)N[C@@H](CCCN=C(N)N)C(=O)N[C@H](C(=O)N[C@H](C(=O)N[C@H](C(=O)N[C@@H](CCCN=C(N)N)C(=O)NCC(=O)N[C@H](C(=O)N[C@@H](CCCN=C(N)N)C(=O)N[C@@H](CCCN=C(N)N)C(N)=O)C(C)C)C(C)C)C(C)C)C(C)C` [GVVVRIGRVVVRGVRR] gave an MIC (Bacillus subtilis) of 8 µM (≈ 14.2 µg/mL), an MIC (Escherichia coli) of 8 µM (≈ 14.2 µg/mL) and an MIC (Salmonella typhimurium) of 4 µM (≈ 7.1 µg/mL). The MIC (Staphylococcus aureus) was 8 µM (≈ 14.2 µg/mL).
Compound `CC[C@H](C)[C@H](NC(=O)[C@H](CCCCN)NC(=O)[C@H](CO)NC(=O)[C@H](C)NC(=O)[C@H](Cc1c[nH]c2ccccc12)NC(=O)CN)C(=O)NCC(=O)N[C@@H](CCC(N)=O)C(=O)N[C@@H](C)C(=O)N[C@@H](CC(C)C)C(=O)NCC(=O)N[C@@H](CCCCN)C(=O)N[C@H](C(=O)N[C@@H](C)C(=O)N[C@@H](CCCCN)C(=O)N[C@H](C(=O)NCC(=O)N[C@@H](CC(C)C)C(=O)N[C@@H](CCC(N)=O)C(=O)N[C@@H](CCC(N)=O)C(=O)N[C@@H](Cc1ccccc1)C(=O)N[C@H](C(=O)N[C@@H](CCC(N)=O)C(=O)N1CCC[C@H]1C(=O)N[C@@H](CCCCN)C(=O)O)[C@@H](C)CC)C(C)C)C(C)C` [GWASKIGQALGKVAKVGLQQFIQPK] has an MIC [4] of 12.5 µM (≈ 33.2 µg/mL) and an MIC [5] of over 100 µM.
`CC[C@H](C)[C@H](N)C(=O)N[C@H](C(=O)N[C@H](C(=O)N1CCC[C@H]1C(=O)N1CCC[C@H]1C(=O)N[C@H](C(=O)N[C@H](C(=O)N[C@@H](CCCCN)C(=O)N[C@@H](CC(=O)O)C(=O)N[C@H](C(=O)N[C@@H](CC(C)C)C(=O)N[C@@H](CCCCN)C(=O)N[C@@H](CCCCN)C(=O)N[C@@H](Cc1ccccc1)C(=O)N[C@@H](Cc1ccccc1)C(=O)N[C@@H](CCCCN)C(=O)NCC(=O)NCC(=O)N[C@H](C(=O)N[C@@H](C)C(=O)NCC(=O)N[C@H](C(=O)N[C@@H](CCSC)C(=O)NCC(=O)N[C@@H](CCCCN)C(=O)N[C@@H](CO)C(=O)N[C@@H](CCC(N)=O)C(=O)O)C(C)C)[C@@H](C)CC)[C@@H](C)O)C(C)C)[C@@H](C)CC)[C@@H](C)CC)[C@@H](C)O` [ITIPPIVKDTLKKFFKGGIAGVMGKSQ] was tested, and the MIC [4] was at least 80 µM and the MIC [5] was 40 µM (≈ 115 µg/mL).
With `CC(C)C[C@H](NC(=O)[C@H](CC(C)C)NC(=O)CNC(=O)CNC(=O)[C@H](CC(C)C)NC(=O)[C@@H](NC(=O)[C@H](CC(N)=O)NC(=O)[C@H](CO)NC(=O)[C@@H](NC(=O)[C@H](CC(C)C)NC(=O)CNC(=O)[C@H](CC(C)C)NC(=O)[C@@H](NC(=O)[C@@H]1CCCN1C(=O)CNC(=O)[C@H](CC(C)C)NC(=O)[C@@H](N)CC(C)C)C(C)C)C(C)C)C(C)C)C(N)=O` [LLGPVLGLVSNVLGGLL] the MIC [6] was at least 157 µM.
`CC[C@H](C)[C@H](NC(=O)[C@H](CC(C)C)NC(=O)[C@H](CO)NC(=O)[C@@H]1CCCN1C(=O)[C@@H](NC(=O)[C@@H](NC(=O)[C@H](CCCCN)NC(=O)[C@H](CO)NC(=O)[C@H](C)NC(=O)[C@@H](NC(=O)[C@H](CO)NC(=O)CNC(=O)[C@@H](NC(=O)[C@H](C)NC(=O)[C@@H](N)CO)C(C)C)C(C)C)C(C)C)C(C)C)C(=O)N[C@@H](CO)C(=O)N[C@@H](CCCCN)C(=O)N[C@H](C(=O)N[C@H](C(=O)N[C@@H](CCCCN)C(=O)O)[C@@H](C)O)C(C)C` [SAVGSVASKVVPSLISKVTK] gave an MIC (Bacillus cereus) of at least 131 µM and an MIC (Escherichia coli) of over 131 µM.
`CC[C@H](C)[C@H](NC(=O)[C@@H](NC(=O)[C@H](CO)NC(=O)[C@H](CCCCN)NC(=O)[C@H](C)NC(=O)[C@@H](NC(=O)[C@H](CCCCN)NC(=O)[C@@H](NC(=O)[C@@H](N)CO)C(C)C)C(C)C)C(C)C)C(=O)N1CCC[C@H]1C(=O)N[C@@H](CO)C(=O)N[C@@H](C)C(=O)N[C@H](C(=O)N[C@@H](Cc1ccccc1)C(=O)N[C@@H](C)C(=O)NCC(=O)NCC(=O)N[C@@H](CCCCN)C(=O)N[C@H](C(=O)N[C@@H](Cc1ccccc1)C(=O)O)C(C)C)C(C)C` [SVKVAKSVIPSAVFAGGKVF] was tested, and the MIC (Bacillus cereus) was at least 129 µM and the MIC (Escherichia coli) was over 129 µM.

— DBAASP
